Results reported in patent US8658648B2, “Modified chloroquines with single ring moiety or fused ring moiety” (DesignMedix, Inc., priority 2008, dated 2014).
Read-outs that look alike come from different tables or passages of the source.

What was measured:
[1] = system: mitogen-induced marine spleen lymphocytes; assay type: cell-based; settings: LC50; mouse spleen lymphocytes, 72 hours incubation, then resazurin 24 hours
Method: Mouse spleen lymphocytes were isolated from C57B1/6J mice by teasing tissues on a metallic sieve screen. […] Two hundred (200) μl isolated cells were then seeded in separate wells of a 96-well flat-bottom tissue culture plate at a density of 2×10^5 cells per well. […] After 72 hours incubation in a humidified atmosphere at 37° C. and 5% CO2, a solution of resazurin PBS was added to a final concentration 10 μM, and the plates were returned to the incubator for another 24 hours. Resazurin is a substrate which changes color in response to metabolic activity (such as that found in living cells). […] LC50 values were determined from plots of florescence versus drug concentration using non-linear regression by Prism software.

[2] = system: 7G8 (CQ^R) P. falciparum strain; experiment: In vitro fluorescence (Sybr Green I) assay for IC50 against 7G8 strain; assay type: cell-based; settings: Plasmodium falciparum, read-out: IC50-7G8
From the text: (§1) This method employs fluorescent detection of the level of parasitemia in cultured red blood cells and can be automated for high-throughput screening of antimalarial RCQs. This exemplary method allows the inhibitory agent (such as a MCQ) to be in contact with the parasite for an entire developmental cycle without purine starvation, which is in contrast to the traditional ^3H-hypoxanthine method (Desjardins et al. 1979. Antimicrob. Agents Chemother. 16(6):710-718, which is incorporated herein by reference in its entirety). Briefly, to perform the Smilkstein et al. method, an initial parasitemia of approximately 0.2% is attained by adding uninfected red blood cells (RBCs) to a stock culture of Plasmodium-infected RBCs. […] After a period of incubation (such as about 72 hours), a sufficient amount (e.g., 100 μL) of a fluorescent DNA binding dye-detergent mixture (e.g., Sybr Green I dye-detergent mixture) to lyse cells and bind to DNA is added to the reactions. Because uninfected RBCs have no DNA, only parasite DNA (in infected RBCs) is available for binding to the fluorescent dye (e.g., Sybr Green I). Samples are then incubated in the dark for a period of time (e.g., one hour), followed by measurement of levels of fluorescence. For Sybr Green 1, excitation and emission wavelength are 485 and 530 nm, respectively. Fluorescence readings, which represent the amount of parasite DNA in the sample, can be plotted against the Log [drug] and fit to a curve by nonlinear regression to obtain the IC50 value for the tested compound.
(§2) An in vitro fluorescence assay for determining IC50 of antimalarial drugs was performed as previously described by Smilkstein et al. (2004. Antimicrob. Agents Chemother. 48(5):1803-1806). This procedure can be automated for high-throughput screening of the antimalarial activities of RCQs described herein. This method also allows the tested agent (e.g., a MCQ) to be in contact with the parasite for an entire developmental cycle without purine starvation (which occurs with the commonly used ^3H-hypoxanthine method; see, e.g., Desjardins et al. 1979. Antimicrob. Agents Chemother. 16, (6):710-7188).
(§3) Briefly, an initial parasitemia of approximately 0.2% was attained by addition of uninfected red blood cells to a stock culture of cells infected with Dd2 (CQ^R), 7G8 (CQ^R), or D6 (CQ^S) P. falciparum strains. A 10 mM solution of a test compound (in DMSO) was prepared. The test compound (at a final concentration from 10^−11 to 10^−4 M) and infected red blood cells (at a final concentration of 2% (v/v)) were mixed in 100 μL samples in individual wells of a 96-well plate. Each sample was prepared in triplicate. A triplicate set of reactions containing CQ (instead of the test compound) was included as a control. After a 72 hour incubation period, Sybr Green I dye-detergent mixture (100 μL) was added to each reaction. The samples were further incubated for an hour in the dark, and then placed in a 96-well fluorescence plate reader (Gemini-EM, […]) and analyzed with excitation and emission wavelength bands at 485 and 530 nm, respectively. Fluorescence readings were plotted against the Log [drug], and curve fitting performed by nonlinear regression to find the IC50 value.

[3] = system: D6 (CQ^S) P. falciparum strain; experiment: In vitro fluorescence (Sybr Green I) assay for IC50 against D6 strain; assay type: cell-based; settings: Plasmodium falciparum, read-out: IC50-D6
From the text: as §1, §2, §3

[4] = system: Dd2 (CQ^R) P. falciparum strain; experiment: In vitro fluorescence (Sybr Green I) assay for IC50 against Dd2 strain; assay type: cell-based; settings: Plasmodium falciparum, read-out: IC50-Dd2
From the text: as §1, §2, §3

P. berghei = experiment: In vivo activity in mice against P. berghei (survival); settings: second 4× oral dose experiment, dosage equimolar to 30 mg/kg CQ; monitored up to 30 days
P. falciparum strain D6 = settings: cited from earlier work; further: key: S = sensitive; R = resistant; S/R = intermediate level of resistance
[5] = system: P. falciparum strain FCR3; settings: cited from earlier work; further: key: S = sensitive; R = resistant; S/R = intermediate level of resistance
P. falciparum strain 7G8 = settings: cited from earlier work; further: key: S = sensitive; R = resistant; S/R = intermediate level of resistance
P. falciparum strain Dd2 = settings: cited from earlier work; further: key: S = sensitive; R = resistant; S/R = intermediate level of resistance
P. falciparum strain 3D7 = settings: cited from earlier work; further: key: S = sensitive; R = resistant; S/R = intermediate level of resistance
P. falciparum strain W2 = settings: cited from earlier work; further: key: S = sensitive; R = resistant; S/R = intermediate level of resistance
[6] = system: P. falciparum strain TM91C235; settings: cited from earlier work; further: key: S = sensitive; R = resistant; S/R = intermediate level of resistance

| IC50 ([2]; 7G8, Erythrocyte, 72 h) [nM] | IC50 ([3]; D6, Erythrocyte, 72 h) [nM] | IC50 ([4]; DD2, Erythrocyte, 72 h) [nM] | Compound | Cytotoxicity [1] [µM] | IC50 ([2]; Erythrocyte, 7G8 (CQ^R) strain in infected red blood cells, 72 hour incubation) [nM] | IC50 ([3]; Erythrocyte, D6 (CQ^S) strain in infected red blood cells, 72 hour incubation) [nM] | IC50 ([4]; Erythrocyte, Dd2 (CQ^R) strain in infected red blood cells, 72 hour incubation) [nM] | average survival for the mice (P. berghei) [days] | Drug susceptibility of P. falciparum strain D6 (P. falciparum strain D6) | Drug susceptibility of P. falciparum strain FCR3 [5] | Drug susceptibility of P. falciparum strain 7G8 (P. falciparum strain 7G8) | Drug susceptibility of P. falciparum strain Dd2 (P. falciparum strain Dd2) | Drug susceptibility of P. falciparum strain 3D7 (P. falciparum strain 3D7) | Drug susceptibility of P. falciparum strain W2 (P. falciparum strain W2) | Drug susceptibility of P. falciparum strain TM91C235 [6] |
| --- | --- | --- | --- | --- | --- | --- | --- | --- | --- | --- | --- | --- | --- | --- | --- |
| – | – | – | Clc1ccc2c(NCCCN3CCN(c4ccccn4)CC3)ccnc2c1 [7-chloro-N-(3-(4-(pyridin-2-yl)piperazin-1-yl)propyl)quinolin-4-amine] | 8.6 | 9.5 | 2.7 | 4.8 | 20 | – | – | – | – | – | – | – |
| 106 | 6.9 | 102 | CCN(CC)CCCC(C)Nc1ccnc2cc(Cl)ccc12 (stereo not drawn) [Chloroquine, chloroquine] | – | – | – | – | – | S | R | R | R | S | R | R |
